Test results published in patent US11091486B2, “Process for the preparation of pyrazolo[1,5-a]pyrimidines and salts thereof” (Array BioPharma Inc., priority 2016, dated 2021).

Key:
[1] = In vitro metabolic stability in rat liver microsomes (Example 34); type: in vitro ADME, Sprague Dawley rat; conditions: 1 μM, predicted hepatic extraction ratio
Description: (§1) In vitro metabolic stabilities were studied at a concentration of 1 μM in the presence of liver microsomes and isolated hepatocytes.
(§2) A 100 mM potassium phosphate assay buffer solution (KPB) was prepared as follows. Both KH2PO4 and K2HPO4 were dissolved separately in reagent grade water resulting in final concentrations 100 mM. A 75:25 mixture v/v of K2HPO4:KH2PO4 was prepared and the pH of the solution was adjusted to 7.4 using diluted HCl or diluted NaOH solutions. A stock solution of test compound was prepared at 10 mM (active compound) in DMSO. The stock solution was diluted immediately before use to 2.5 μM using the KPB solution to create the working standard. All test compounds were completely soluble in DMSO by visual inspection at room temperature. […]
(§3) Data were acquired and peak areas were calculated for test compounds and the internal standard using Analyst 1.6.1 software (Sciex). […]
(§4) All calculations were performed using BioAssay Enterprise. The mean peak area ratios were calculated by averaging the peak area ratios (n=2) of test compound and the internal standard for each sample. Percent remaining was calculated by determining the ratio of the peak area ratio at each time point to the peak area ratio of the time-zero samples. The rate of loss of test compound (km) was determined by linear regression of—1n(f(t)) versus time. […] The t½ was determined dividing 1n(2) by km. […]

[2] = In vitro metabolic stability in human liver microsomes (Example 34); type: in vitro ADME; conditions: 1 μM, predicted hepatic extraction ratio
Description: as §1, §2, §3, §4

MDR1 (P-gp) = biological target: T1, MDR1 (P-gp) (Homo sapiens, UniProt P08183); experiment: MDR1 efflux in MDR1 transfected LLC-PK1 cells (Example 35); type: in vitro ADME; conditions: pig, MDR1 transfected LLC-PK1 monolayers, read-out: MDRI efflux ratio
T1 construct: expressed in transfected cells; host or cells: LLC-PK1 cells
T1 sequence (P08183 whole entry): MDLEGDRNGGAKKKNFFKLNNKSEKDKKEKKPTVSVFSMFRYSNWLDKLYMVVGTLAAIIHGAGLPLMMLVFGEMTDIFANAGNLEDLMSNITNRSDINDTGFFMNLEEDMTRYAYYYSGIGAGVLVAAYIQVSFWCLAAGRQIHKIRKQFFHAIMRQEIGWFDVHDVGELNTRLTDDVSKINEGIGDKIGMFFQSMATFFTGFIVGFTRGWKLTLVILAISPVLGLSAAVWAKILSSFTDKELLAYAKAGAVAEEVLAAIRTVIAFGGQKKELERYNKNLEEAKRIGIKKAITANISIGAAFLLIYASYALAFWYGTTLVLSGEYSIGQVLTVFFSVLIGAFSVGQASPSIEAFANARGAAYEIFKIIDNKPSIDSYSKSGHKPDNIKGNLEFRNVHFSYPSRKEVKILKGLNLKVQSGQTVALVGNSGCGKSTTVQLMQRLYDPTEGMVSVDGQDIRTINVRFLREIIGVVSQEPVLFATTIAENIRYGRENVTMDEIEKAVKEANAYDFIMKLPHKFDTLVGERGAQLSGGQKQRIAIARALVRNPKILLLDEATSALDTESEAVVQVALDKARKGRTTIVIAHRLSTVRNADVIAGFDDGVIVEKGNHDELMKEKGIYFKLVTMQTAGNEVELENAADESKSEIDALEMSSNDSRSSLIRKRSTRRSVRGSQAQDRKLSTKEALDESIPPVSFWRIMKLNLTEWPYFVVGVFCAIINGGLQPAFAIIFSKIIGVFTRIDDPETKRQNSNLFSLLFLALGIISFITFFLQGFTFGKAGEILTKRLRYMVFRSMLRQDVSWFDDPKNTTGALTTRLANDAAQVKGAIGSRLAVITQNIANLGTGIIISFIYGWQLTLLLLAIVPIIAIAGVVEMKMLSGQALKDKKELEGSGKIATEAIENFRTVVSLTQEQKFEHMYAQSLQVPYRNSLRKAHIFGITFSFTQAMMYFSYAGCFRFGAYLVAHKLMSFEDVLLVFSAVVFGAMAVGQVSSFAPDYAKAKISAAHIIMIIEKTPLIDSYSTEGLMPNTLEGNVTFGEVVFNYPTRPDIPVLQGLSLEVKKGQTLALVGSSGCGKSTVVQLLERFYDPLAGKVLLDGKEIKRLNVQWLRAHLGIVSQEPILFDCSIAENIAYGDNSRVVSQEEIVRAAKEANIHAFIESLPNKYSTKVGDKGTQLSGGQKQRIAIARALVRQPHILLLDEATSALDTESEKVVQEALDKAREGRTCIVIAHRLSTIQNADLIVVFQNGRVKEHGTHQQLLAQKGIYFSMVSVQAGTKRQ
Description: Both LLC-PK1 and MDR1 transfected LLC-PK1 cells were cultured and plated according to manufacturer's recommendations with the exception that the passage media contained only 2% fetal bovine serum so as to extend passage time out to seven days.
Both positive and negative controls were used to assess functionality of P-gp efflux in the assay. Stock solutions for assay controls and the test article were prepared in DMSO for a final test concentrations of 10 μM. Final organic concentration in the assay was 1%. All dosing solutions contained 10 μM lucifer yellow to monitor LLC-PK1 cell monolayer integrity.
For the apical to basolateral determination (A to B), 75 μL of the test article in transport buffer were added to the apical side of the individual transwells and 250 μL of basolateral media, without compound or lucifer yellow, were added to each well. […] The plates were read using a Molecular Devices (Sunnyvale, Calif.) Gemini Fluorometer to evaluate the lucifer yellow concentrations at excitation/emission wavelengths of 425/535 nm. […] The plates were sealed and the contents of each well analyzed by LC-MS/MS. The compound concentrations were determined from the ratio of the peak areas of the compound to the internal standard (labetalol) in comparison to the dosing solution.
Permeability (Papp) was calculated in BioAssay v. […]

Row | Structure (SMILES) | Rat Microsome Clearance (% ER) [1] | Human Microsome Clearance (% ER) [2] | efflux ratio at 2 h, 10 μM (MDR1 (P-gp))
1 | C[C@@H]1CCc2ncc(F)cc2[C@H]2CCCN2c2ccn3ncc(c3n2)C(=O)N1 [Formula I] | 51 % ER | 79 % ER | 14
2 | C[C@H]1CCc2ncc(F)cc2[C@H]2CCCN2c2ccn3ncc(c3n2)C(=O)N1 [formula I′] | 77 % ER | 92 % ER | 5
